# Experimental data as given in paper PMC4512978, “Synthesis and evaluation in rats of homologous series of [^18F]-labeled dopamine D2/3 receptor agonists based on the 2-aminomethylchroman scaffold as potential PET tracers” (EJNMMI Research, 2015).
# Where two headings read alike, the source gives them in different places.
# Experiments:
# [1] = Ex vivo tissue uptake after the PET scan (gamma-counter); format: in vivo, Sprague-Dawley rats
# Description: After the end of the PET scans (i.e., 98 ± 8 min after tracer injection), anesthetized animals were sacrificed by heart extirpation and dissected. Samples of brain and peripheral tissues were taken. All samples were weighed, and their radioactivity was measured in a gamma-counter.
# [2] = Tracer metabolism in plasma and brain extract (radio-TLC); format: in vivo, rats; details: living rats
# Description: Throughout the scan, arterial blood samples (15–19 samples; 0.10–0.15 mL each) were withdrawn from each rat through the arterial cannula. […] From each sample, 25 μL aliquots of whole blood were withdrawn. The rest was centrifuged at 3500 g for 5 min; 25 μL supernatant (plasma) aliquots were withdrawn and deproteinated with 75 μL of ice-cold acetonitrile. From the resulting 100 μL, 2–8 μL portions (i.e., 2–8 % of volume) were taken for thin layer chromatography analysis (radio-TLC) to assess radiometabolite content.
# The radioactivity of the plasma and whole blood samples was measured using a well-type gamma-counter (LKB-1282-Compugamma, LKB Wallac).
# Radio-TLC was performed on silica plates. Samples of the formulated tracers (diluted) were run along with deproteinated plasma samples to confirm the identity of the parent compound in plasma. Eluent systems used and TLC Rf values recorded are presented in Additional file 1: Table S1.
# Another half of the brain was homogenized in 3 mL of ice-cold acetonitrile using Heidolph IDAX600 homogenizer at maximum speed. Homogenate was centrifuged at 3500g for 5 min, and the supernatant (containing >95 % total radioactivity) was analyzed by radio-TLC in the same way as described above for the plasma.
# [3] = test system: D2/3R; design: method as in PMID 24325578; details: cited from earlier work; for Striatal SBR % change relative to control condition, Raclopride / Striatal SBR, Raclopride: 10 μM raclopride; for Striatal SBR, Control: radioligand only
# [4] = raclopride 1 mg/kg, after PET scan
# [5] = [^18F]FBu-AMC13 0.2 nM, [^18F]FEt-AMC15 5.8 ± 1.6 nM
# [6] = 100 μM GTP, [^18F]FBu-AMC13 0.2 nM, [^18F]FEt-AMC15 5.8 ± 1.6 nM
compound,measurement,setting,value
"Oc1ccc2c(c1)O[C@@H](CNCc1ccc(OCCCC[18F])cc1)CC2 [[^18F]FBu-AMC13, (R)-2-[(4-(4-[^18F]fluorobutoxy)benzylamino)methyl]chroman-7-ol]","Ex vivo uptake, Adrenal glands",[1]; RAC,32.1±3.6 SUV
same,"Ex vivo uptake, Bladder",[1]; RAC,0.59±0.26 SUV
same,"Ex vivo uptake, Bone",[1]; RAC,0.77±0.46 SUV
same,"Ex vivo uptake, Bone marrow",[1]; RAC,2.18±0.09 SUV
same,"Ex vivo uptake, Duodenum",[1]; RAC,2.70±1.37 SUV
same,"Ex vivo uptake, Heart",[1]; RAC,0.36±0.03 SUV
same,"Ex vivo uptake, Kidney",[1]; RAC,2.36±0.54 SUV
same,"Ex vivo uptake, Large intestine",[1]; RAC,0.46±0.19 SUV
same,"Ex vivo uptake, Liver",[1]; RAC,1.99±0.86 SUV
same,"Ex vivo uptake, Lung",[1]; RAC,4.26±1.02 SUV
same,"Ex vivo uptake, Muscle",[1]; RAC,0.27±0.02 SUV
same,"Ex vivo uptake, Pancreas",[1]; RAC,3.54±0.64 SUV
same,"Ex vivo uptake, Plasma",[1]; RAC,0.16±0.03 SUV
same,"Ex vivo uptake, Prostate",[1]; RAC,1.27±0.40 SUV
same,"Ex vivo uptake, Small intestine",[1]; RAC,3.21±3.67 SUV
same,"Ex vivo uptake, Small intestine content",[1]; RAC,11.0±11.4 SUV
same,"Ex vivo uptake, Spleen",[1]; RAC,2.14±0.20 SUV
same,"Ex vivo uptake, Stomach",[1]; RAC,2.19±0.67 SUV
same,"Ex vivo uptake, Submandibular gland",[1]; RAC,2.12±0.85 SUV
same,"Ex vivo uptake, Thymus",[1]; RAC,1.54±0.12 SUV
same,"Ex vivo uptake, Urine",[1]; RAC,1.51±0.95 SUV
same,"Ex vivo uptake, Adrenal glands",[1]; SAL,34.5±3.5 SUV
same,"Ex vivo uptake, Bladder",[1]; SAL,0.43±0.16 SUV
same,"Ex vivo uptake, Bone",[1]; SAL,0.73±0.47 SUV
same,"Ex vivo uptake, Bone marrow",[1]; SAL,2.31±1.19 SUV
same,"Ex vivo uptake, Duodenum",[1]; SAL,3.24±1.2 SUV
same,"Ex vivo uptake, Heart",[1]; SAL,0.50±0.25 SUV
same,"Ex vivo uptake, Kidney",[1]; SAL,3.24±0.69 SUV
same,"Ex vivo uptake, Large intestine",[1]; SAL,0.60±0.13 SUV
same,"Ex vivo uptake, Liver",[1]; SAL,1.49±0.15 SUV
same,"Ex vivo uptake, Lung",[1]; SAL,4.85±2.15 SUV
same,"Ex vivo uptake, Muscle",[1]; SAL,0.33±0.13 SUV
same,"Ex vivo uptake, Pancreas",[1]; SAL,3.78±0.41 SUV
same,"Ex vivo uptake, Plasma",[1]; SAL,0.15±0.02 SUV
same,"Ex vivo uptake, Prostate",[1]; SAL,0.95±0.17 SUV
same,"Ex vivo uptake, Small intestine",[1]; SAL,4.52±5.94 SUV
same,"Ex vivo uptake, Small intestine content",[1]; SAL,20.9±31.4 SUV
same,"Ex vivo uptake, Spleen",[1]; SAL,2.48±1.27 SUV
same,"Ex vivo uptake, Stomach",[1]; SAL,1.90±0.26 SUV
same,"Ex vivo uptake, Submandibular gland",[1]; SAL,2.01±0.53 SUV
same,"Ex vivo uptake, Thymus",[1]; SAL,2.04±0.27 SUV
same,"Ex vivo uptake, Urine",[1]; SAL,0.63±0.53 SUV
same,"Ex vivo uptake, Brainstem",[1]; [4],1.25 ± 0.14 SUV
same,"Ex vivo uptake, Cerebellum",[1]; [4],0.73 ± 0.08 SUV
same,"Ex vivo uptake, Cortex",[1]; [4],1.01 ± 0.11 SUV
same,"Ex vivo uptake, Hippocampus",[1]; [4],1.21 ± 0.06 SUV
same,"Ex vivo uptake, Mean brain uptake",[1]; [4],1.03 ± 0.11 SUV
same,"Ex vivo uptake, Olfactory bulbs",[1]; [4],0.86 ± 0.09 SUV
same,"Ex vivo uptake, Parietal bone",[1]; [4],0.70 ± 0.18 SUV
same,"Ex vivo uptake, Pituitary",[1]; [4],2.72 ± 0.77 SUV
same,"Ex vivo uptake, Rest of brain",[1]; [4],1.10 ± 0.17 SUV
same,"Ex vivo uptake, Striatum",[1]; [4],1.21 ± 0.14 SUV
same,"Ex vivo uptake, Thalamus + hypothalamus",[1]; [4],1.07 ± 0.10 SUV
same,"Ex vivo uptake, Brainstem","[1]; saline, after PET scan",1.97 ± 0.42 (2) SUV
same,"Ex vivo uptake, Cerebellum","[1]; saline, after PET scan",1.11 ± 0.29 (8) SUV
same,"Ex vivo uptake, Cortex","[1]; saline, after PET scan",1.50 ± 0.32 (7) SUV
same,"Ex vivo uptake, Hippocampus","[1]; saline, after PET scan",1.50 ± 0.25 (6) SUV
same,"Ex vivo uptake, Mean brain uptake","[1]; saline, after PET scan",1.56 ± 0.33 SUV
same,"Ex vivo uptake, Olfactory bulbs","[1]; saline, after PET scan",1.85 ± 0.64 (3) SUV
same,"Ex vivo uptake, Parietal bone","[1]; saline, after PET scan",0.61 ± 0.17 SUV
same,"Ex vivo uptake, Pituitary","[1]; saline, after PET scan",3.19 ± 0.29 SUV
same,"Ex vivo uptake, Rest of brain","[1]; saline, after PET scan",1.60 ± 0.25 (4) SUV
same,"Ex vivo uptake, Thalamus + hypothalamus","[1]; saline, after PET scan",2.07 ± 0.70 (1) SUV
same,"Ex vivo uptake, Striatum","[1]; saline, after PET scan (98 ± 8 min p.i.)",1.60 ± 0.33 (5) SUV
same,metabolism in plasma,[2],quickly metabolized in the plasma
same,"Striatal SBR % change relative to control condition, Raclopride",[3]; [5],−88%
same,"Striatal SBR, Raclopride",[3]; [5],0.10 ± 0.19
same,"Striatal SBR % change relative to control condition, Raclopride",[3]; tracer 4.5 ± 3.6 nM,−79%
same,"Striatal SBR, Raclopride",[3]; tracer 4.5 ± 3.6 nM,0.04 ± 0.22
same,"Striatal SBR % change relative to control condition, GTP",[3]; [6],−76%
same,"Striatal SBR, GTP",[3]; [6],0.20 ± 0.16
same,"Striatal SBR, Control",[3]; [5],0.85 ± 0.23
same,"Striatal SBR, Control",[3]; tracer 4.5 ± 3.6 nM,0.19 ± 0.18
